Structures are written as SMILES. pIC50: −log10 of the molar value.

In test [1] the test system is phosphorylation of extracellular signal-regulated kinase (ERK). To be noted: preclinical studies; cited from earlier work.
Test [2] deals with T1, KRAS G12C (Homo sapiens (Human), UniProt P01116, C118A/G12C). The test can be described thus: 20 h coupled exchange assay. As to conditions: value marked ** in the Avg 2 h column; footnote not given, taken as 20 h pre-incubation. Format: biochemical. As to the method: (§1) The term “2 h coupled exchange assay” or “20 h coupled exchange assay” as used herein refers to the assay described in the Section entitled “BIOLOGICAL EVALUATION.”
T1 sequence (P01116 other isoform, or with tags, fused parts or gaps G12C/C118A): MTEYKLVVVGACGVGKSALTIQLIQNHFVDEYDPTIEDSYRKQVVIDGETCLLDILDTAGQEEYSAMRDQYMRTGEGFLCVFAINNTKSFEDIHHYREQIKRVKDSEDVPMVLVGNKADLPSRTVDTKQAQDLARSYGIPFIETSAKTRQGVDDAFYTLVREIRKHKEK

Test [3] has as its system MIA PaCa-2 (human pancreatic carcinoma) cells. As to the kind of experiment: Cell Viability Assay (CellTiter-Glo), MIA PaCa-2. Format: cell-based. As to conditions: Homo sapiens, MIA PaCa-2, 72 h. As to the method:
Serially-diluted compound or DMSO was added to the cells, and plates were incubated at 37° C., 5% CO2 for 72 h. Cell viability was measured using a CellTiter-Glo® Luminescent Cell Viability Assay kit (Promega) according to the manufacturer's protocol. The luminescence signal of treated samples was normalized to DMSO control, and data were analyzed using a 4-parameter logistic model to calculate IC50 values.
On the technique in general: In ATP-based viability assays light output follows the ATP content of the culture.

Test [4] has as its system A549 (human lung carcinoma) cells. As to the kind of experiment: Cell Viability Assay (CellTiter-Glo), A549. As to conditions: Homo sapiens, A549, 72 h. Format: cell-based. In a few lines: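 RPMI 1640/10% FBS; seed 1.67E+04 cells/mL, o/n 37° C., 5% CO2; serial-dilution cmpd 72 h; CellTiter-Glo luminescence vs DMSO; 4-parameter logistic fit → IC50.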
Test [5] concerns the target T1, KRAS G12C. The test can be described thus: 2 h coupled exchange assay. In kind it is biochemical. To be noted: Avg 2 h Coupled exchange IC50, 2 h compound pre-incubation. As for the experimental part:
as §1

`C=CC(=O)N1CCN(c2nc(=O)n(-c3c(C)ccnc3C(C)C)c3nc(-c4c(O)cccc4F)c(F)cc23)[C@@H](C)C1` [AMG 510]: in test [1], the “inhibition of phosphorylation of extracellular signal-regulated kinase (ERK)” value is “inhibited nearly all detectable phosphorylation”.

`C=CC(=O)N1CC2(CCN(c3nc(-c4c(C)ccc5[nH]ncc45)c4ncn(C)c4n3)C2)C1` [Example 1-20, 1-(6-(9-methyl-6-(5-methyl-1H-indazol-4-yl)-9H-purin-2-yl)-2,6-diazaspiro[3.4]octan-2-yl)-2-propen-1-one]: the pIC50 was 5.33 in test [2], under 5.30 in test [3] and under 5.30 in test [4].

In test [2], `C=CC(=O)N1CC2(CCN(c3cc(-c4c(C)ccc5[nH]ncc45)c4occ(C)c4n3)C2)C1` [Example 3, 1-(6-(3-Methyl-7-(5-methyl-1H-indazol-4-yl)furo[3,2-b]pyridin-5-yl)-2,6-diazaspiro[3.4]octan-2-yl)prop-2-en-1-one] had a pIC50 of 5.86.

Take `C=CC(=O)N1CC2(CCN(c3nc4cc(-c5scnc5C)ccc4c(-c4ccc(F)cc4F)c3C#N)C2)C1` [Example 20-13, 4-(2,4-difluorophenyl)-7-(4-methyl-1,3-thiazol-5-yl)-2-(2-(2-propenoyl)-2,6-diazaspiro[3.4]octan-6-yl)-3-quinolinecarbonitrile]: the results for the pIC50 in test [5], in test [3] and in test [4] were 6.98, 5.97 and 5.22, respectively.

As to `C=CC(=O)N1CC2(CCN(c3nc4c(c(-c5c(C)ccc6cnn(C)c56)c3C)CC[C@@H](c3c(C)cnn3C)C4)C2)C1` (single isomer, unassigned) [Example 14-98], the pIC50 in test [5] was 7.15; in test [3], 7.10; in test [4], under 5.30.

What is called pIC50 is −log10 of the IC50, conventionally taken in molar units. Low values mean a high IC50, high ones a low IC50.

The values above are taken from patent US20240059703A1 (AMGEN INC., priority 2021, published 2024).
